Measured values published in BindingDB's records for doi:10.1016/j.bmcl.2009.10.011 (AMRI, 2009).

Target: Cyclin-A1/Cyclin-A2/Cyclin-dependent kinase 2 (Homo sapiens, UniProt P24941)
Assay: Inhibition of recombinant Cdk2/cyclinA

| Structure (SMILES) | IC50 [nM] |
| --- | --- |
| Cc1csc(-c2ccc(CNc3nc(N[C@H]4CC[C@H](N)CC4)nc4c3ncn4C(C)C)s2)n1 | 0.1 |
| CC(C)n1cnc2c(NCc3ccc(-c4cccs4)nc3)nc(N[C@H]3CC[C@H](N)CC3)nc21 | 0.9 |
